Reference: patent publication US20230045421A1 (priority 2018, published 2023)
pEC50: −log10 of the molar value. Read-outs that look alike come from different tables or passages of the source.

System: HBV rcDNA
Assay: HepDE19 assay with bDNA quantitation of HBV rcDNA
Type: cell-based, hepatitis B virus
Description: HepDE19 Assay with bDNA Quantitation of HBV rcDNA:
HepDE19 cell culture system is a HepG2 (human hepatocarcinoma) derived cell line that supports HBV DNA replication and cccDNA formation in a tetracycline (Tet)-regulated manner and produces HBV rcDNA and a detectable reporter molecule dependent on the production and maintenance of cccDNA (Guo, et al., 2007, J. Virol. 81:12472-12484).
HepDE19 (50,000 cells/well) were plated in 96-well collagen-coated tissue-culture treated microtiter plates in DMEM/F12 medium supplemented with 10% fetal bovine serum, 1% penicillin-streptomycin and 1 μg/mL tetracycline and incubated in a humidified incubator at 37° C. and 5% CO2 overnight. Next day, the cells were switched to fresh medium without tetracycline and incubated for 4 hours at 37° C. and 5% CO2. The cells were treated with fresh Tet-free medium with compounds at concentrations starting at 25 μM and a serial, […], 8-point, titration series in duplicate. The final DMSO concentration in the assay was 0.5%. The plates were incubated for 7 days in a humidified incubator at 37° C. and 5% CO2. Following a 7 day-incubation, the level of rcDNA present in the inhibitor-treated wells was measured using a Quantigene 2.0 bDNA assay kit (Affymetrix, Santa Clara, Calif.) with HBV specific custom probe set and manufacturers instructions. Concurrently, the effect of compounds on cell viability was assessed using replicate plates, plated at a density of 5,000 cells/well and incubated for 4 days, to determine the ATP content as a measure of cell viability using the cell-titer glo reagent (CTG; Promega Corporation, Madison, Wis.) as per manufacturer's instructions. The plates were read using a Victor luminescence plate reader (PerkinElmer Model 1420 Multilabel counter) and the relative luminescence units (RLU) data generated from each well was calculated as % inhibition of the untreated control wells and analyzed using XL-Fit module in Microsoft Excel to determine EC50 and EC90 (bDNA) and CC50 (CTG) values using a 4-parameter curve fitting algorithm.

[1] = Hepatitis B virus, HepDE19, HepDE19 assay, inhibition of formation of rcDNA; read-out: DE-19bDNA EC50
[2] = HepDE19 assay, inhibition of formation of rcDNA; read-out: DE-19bDNA EC50
[3] = HepDE19 assay, inhibition of formation of relaxed circular DNA (rcDNA), bDNA quantitation; read-out: DE-19bDNA EC50

Q: With `C[C@H](c1c[nH]c(=O)c2ccccc12)N(C)C(=O)Nc1ccc(F)c(C(F)(F)F)c1` [Compound 89, (R)-3-(4-Fluoro-3-(trifluoromethyl)phenyl)-1-methyl-1-(1-(1-oxo-1,2-dihydroisoquinolin-4-yl)ethyl)urea] as the compound, how does the pEC50 [1] read?
A: Its pEC50 is 6.49.

Q: How did the pEC50 [2] turn out when `CC(=O)NCCN(C(=O)Nc1ccc(F)c(Cl)c1)C(C)c1c[nH]c(=O)c2ccccc12` (single isomer, unassigned) [Compound 138, N-(2-(3-(3-Chloro-4-fluorophenyl)-1-(1-(1-oxo-1,2-dihydroisoquinolin-4-yl)ethyl)ureido)ethyl)acetamide] was run?
A: The pEC50 was 4.72.

Q: With `COc1ncc(C(C)N(CC2CC2)C(=O)Nc2ccc(F)c(Cl)c2)c2ccccc12` (single isomer, unassigned) [Compound 63, 3-(3-Chloro-4-fluorophenyl)-1-(cyclopropylmethyl)-1-(1-(1-methoxyisoquinolin-4-yl)ethyl)urea] as the compound, how does the pEC50 [2] read?
A: The pEC50 was 5.24.

Q: `CNC(=O)CN(C(=O)Nc1ccc(F)c(Cl)c1)C(C)c1c[nH]c(=O)c2ccccc12` (single isomer, unassigned) [Compound 129, 2-(3-(3-Chloro-4-fluorophenyl)-1-(1-(1-oxo-1,2-dihydroisoquinolin-4-yl)ethyl)ureido)-N-methylacetamide] was tested. Which pEC50 [1] did it give?
A: The pEC50 was 6.28.

Q: With `CC(c1c[nH]c(=O)c2cc(F)ccc12)N(C)C(=O)Nc1ccc(F)c(Cl)c1` (single isomer, unassigned) [Compound 264, 3-(3-Chloro-4-fluorophenyl)-1-(1-(7-fluoro-1-oxo-1,2-dihydroisoquinolin-4-yl)ethyl)-1-methylurea] as the compound, how does the pEC50 [2] read?
A: The pEC50 was 7.72.

Q: With `CC(c1cn(C)c(=O)c2cc(F)c(F)cc12)N(C)C(=O)Nc1ccc(F)c(Cl)c1` (single isomer, unassigned) [Compound 341, 3-(3-Chloro-4-fluorophenyl)-1-(1-(6,7-difluoro-2-methyl-1-oxo-1,2-dihydroisoquinolin-4-yl)ethyl)-1-methylurea] as the compound, how does the pEC50 [3] read?
A: The pEC50 was 7.96.

Q: With `CCN(C(=O)Nc1ccc(F)c(Cl)c1)C(C)c1c[nH]c(=O)c2ccccc12` (single isomer, unassigned) [Compound 25, 3-(3-Chloro-4-fluorophenyl)-1-ethyl-1-(1-(1-oxo-1,2-dihydroisoquinolin-4-yl)ethyl)urea] as the compound, how does the pEC50 [2] read?
A: The pEC50 was 7.70.

Q: With `CC(c1c[nH]c(=O)c2ccccc12)N(Cc1nnc[nH]1)C(=O)Nc1ccc(F)c(Cl)c1` (single isomer, unassigned) [Compound 268, 1-((1H-1,2,4-Triazol-5-yl)methyl)-3-(3-chloro-4-fluorophenyl)-1-(1-(1-oxo-1,2-dihydroisoquinolin-4-yl)ethyl)urea] as the compound, how does the pEC50 [1] read?
A: Its pEC50 is 5.59.

Q: How did the pEC50 [3] turn out when `CC(c1cnc(-n2ccnn2)c2ccccc12)N(C)C(=O)Nc1ccc(F)c(Cl)c1` (single isomer, unassigned) [Compound 424, 1-(1-(1-(1H-1,2,3-Triazol-1-yl)isoquinolin-4-yl)ethyl)-3-(3-chloro-4-fluorophenyl)-1-methylurea] was run?
A: The pEC50 was 5.19.

Q: With `CC(c1c[nH]c(=O)c2c(F)c(F)ccc12)N(C)C(=O)Nc1ccc(F)c(C(F)F)c1` (single isomer, unassigned) [Compound 503, 1-(1-(7,8-Difluoro-1-oxo-1,2-dihydroisoquinolin-4-yl)ethyl)-3-(3-(difluoromethyl)-4-fluorophenyl)-1-methylurea] as the compound, how does the pEC50 [3] read?
A: The pEC50 was 6.07.

Q: How did the pEC50 (Hepatitis B virus, HepDE19, HepDE19 assay, inhibition of formation of relaxed circular DNA (rcDNA), bDNA quantitation; read-out: DE-19bDNA EC50) turn out when `CC(C)CN(C(=O)Nc1ccc(F)c(Cl)c1)C(C)c1c[nH]c(=O)c2cc(F)c(F)cc12` (single isomer, unassigned) [Compound 281, 3-(3-Chloro-4-fluorophenyl)-1-(1-(6,7-difluoro-1-oxo-1,2-dihydroisoquinolin-4-yl)ethyl)-1-isobutylurea] was run?
A: Its pEC50 is 8.70.

Q: With `CCC(c1cnc(OC)c2ccccc12)N(CC)C(=O)Nc1ccc(F)c(Cl)c1` (single isomer, unassigned) [Compound 36, 3-(3-Chloro-4-fluorophenyl)-1-ethyl-1-(1-(1-methoxyisoquinolin-4-yl)propyl)urea] as the compound, how does the pEC50 [2] read?
A: Its pEC50 is 5.68.

Q: How did the pEC50 [1] turn out when `CNC(=O)CCN(C(=O)Nc1ccc(F)c(Cl)c1)C(C)c1c[nH]c(=O)c2ccccc12` (racemic) [Compound 104, 3-(3-(3-chloro-4-fluorophenyl)-1-(1-(1-oxo-1,2-dihydroisoquinolin-4-yl)ethyl)ureido)-N-methylpropanamide] was run?
A: The pEC50 was 6.24.

Q: `CC(c1c[nH]c(=O)c2ccncc12)N(C)C(=O)Nc1ccc(F)c(Cl)c1` (stereo not drawn) [Compound 127, 3-(3-chloro-4-fluorophenyl)-1-methyl-1-(1-(1-oxo-1,2-dihydro-2,6-naphthyridin-4-yl)ethyl)urea] was tested. Which pEC50 [1] did it give?
A: The pEC50 was 6.00.

Q: With `CCN(C(=O)Nc1ccc(F)c(Cl)c1)C(C)c1c[nH]c(=O)c2ccccc12` (single isomer, unassigned) [Compound 24, 3-(3-Chloro-4-fluorophenyl)-1-ethyl-1-(1-(1-oxo-1,2-dihydroisoquinolin-4-yl)ethyl)urea] as the compound, how does the pEC50 [2] read?
A: Its pEC50 is 5.49.

Q: How did the pEC50 [2] turn out when `CC(c1c[nH]c(=O)c2ccccc12)N(CCCC#N)C(=O)Nc1ccc(F)c(Cl)c1` (single isomer, unassigned) [Compound 114, 3-(3-Chloro-4-fluorophenyl)-1-(3-cyanopropyl)-1-(1-(1-oxo-1,2-dihydroisoquinolin-4-yl)ethyl)urea] was run?
A: The pEC50 was 5.72.

Q: `CCCCN(Cc1c[nH]c(=O)c2ccccc12)C(=O)Nc1ccc(F)c(Cl)c1` [Compound 52, 1-Butyl-3-(3-chloro-4-fluorophenyl)-1-((1-oxo-1,2-dihydroisoquinolin-4-yl)methyl)urea] was tested. Which pEC50 [1] did it give?
A: Its pEC50 is 7.10.

Q: How did the pEC50 [2] turn out when `CCN(C(=O)Nc1ccc(F)c(Cl)c1)C(c1c[nH]c(=O)c2ccccc12)C(F)(F)F` (single isomer, unassigned) [Compound 74, 3-(3-chloro-4-fluorophenyl)-1-ethyl-1-(2,2,2-trifluoro-1-(1-oxo-1,2-dihydroisoquinolin-4-yl)ethyl)urea] was run?
A: Its pEC50 is 4.82.

Q: With `CC(c1cn(C2CC2)c(=O)c2ccccc12)N(C)C(=O)Nc1ccc(F)c(Cl)c1` (single isomer, unassigned) [Compound 190, 3-(3-Chloro-4-fluorophenyl)-1-(1-(2-cyclopropyl-1-oxo-1,2-dihydroisoquinolin-4-yl)ethyl)-1-methylurea] as the compound, how does the pEC50 [2] read?
A: Its pEC50 is 6.77.

Q: `COCCCN(C(=O)Nc1ccc(F)c(Cl)c1)C(C)c1c[nH]c(=O)c2ccccc12` (stereo not drawn) [Compound 80] was tested. Which pEC50 [2] did it give?
A: The pEC50 was 7.52.

Q: With `Cc1cc(NC(=O)N(C)C(C)c2c[nH]c(=O)c3cc(F)c(F)cc23)ccc1F` (single isomer, unassigned) [Compound 427, 1-(1-(6,7-Difluoro-1-oxo-1,2-dihydroisoquinolin-4-yl)ethyl)-3-(4-fluoro-3-methylphenyl)-1-methylurea] as the compound, how does the pEC50 [3] read?
A: Its pEC50 is 8.15.

Q: `CCN(C(=O)Nc1ccc(F)c(Cl)c1)C(c1c[nH]c(=O)c2ccccc12)C1CC1` (single isomer, unassigned) [Compound 46, 3-(3-Chloro-4-fluorophenyl)-1-(cyclopropyl(1-oxo-1,2-dihydroisoquinolin-4-yl)methyl)-1-ethylurea] was tested. Which pEC50 (read-out: DE-19bDNA EC50; HepDE19 assay, inhibition of formation of rcDNA) did it give?
A: Its pEC50 is 4.64.

Q: How did the pEC50 [2] turn out when `CC(c1c[nH]c(=O)c2ccccc12)N(CC1CCOCC1)C(=O)Nc1ccc(F)c(Cl)c1` (single isomer, unassigned) [Compound 141, 3-(3-Chloro-4-fluorophenyl)-1-(1-(1-oxo-1,2-dihydroisoquinolin-4-yl)ethyl)-1-((tetrahydro-2H-pyran-4-yl)methyl)urea] was run?
A: Its pEC50 is 5.47.

Q: `Cc1cc(NC(=O)N(C)C(C)c2c[nH]c(=O)c3c(F)c(F)ccc23)ccc1F` (single isomer, unassigned) [Compound 441, 1-(1-(7,8-Difluoro-1-oxo-1,2-dihydroisoquinolin-4-yl)ethyl)-3-(4-fluoro-3-methylphenyl)-1-methylurea] was tested. Which pEC50 [3] did it give?
A: Its pEC50 is 8.10.

Q: How did the pEC50 [3] turn out when `CC(c1c[nH]c(=O)c2cc(F)c(F)cc12)N(C)C(=O)Nc1ccc(F)c(F)c1` (single isomer, unassigned) [Compound 409, 1-(1-(6,7-Difluoro-1-oxo-1,2-dihydroisoquinolin-4-yl)ethyl)-3-(3,4-difluorophenyl)-1-methylurea] was run?
A: The pEC50 was 7.89.

Q: How did the pEC50 [3] turn out when `CC(c1c[nH]c(=O)c2cc(F)c(F)cc12)N(C)C(=O)NCc1cc(F)c(F)c(F)c1` (single isomer, unassigned) [Compound 481, 1-(1-(6,7-Difluoro-1-oxo-1,2-dihydroisoquinolin-4-yl)ethyl)-1-methyl-3-(3,4,5-trifluorobenzyl)urea] was run?
A: Its pEC50 is 6.28.

Q: `CC(c1c[nH]c(=O)c2ccccc12)N(Cc1cccnc1)C(=O)Nc1ccc(F)c(Cl)c1` (single isomer, unassigned) [Compound 306, 3-(3-Chloro-4-fluorophenyl)-1-(1-(1-oxo-1,2-dihydroisoquinolin-4-yl)ethyl)-1-(pyridin-3-ylmethyl) urea] was tested. Which pEC50 [3] did it give?
A: The pEC50 was 6.00.
